US20200038418A1, “METHODS OF TREATING AUTISM SPECTRUM DISORDER USING AMINOSTEROL COMPOSITIONS” (Enterin, Inc., priority 2018, published 2020)

Legend:
[1] = single and repeat intravenous administration, alone or in combination; cited from earlier work
[2] = tested on: mice with constipation due to overexpression of human αS; test: Gastrointestinal motility in mouse models of PD; assay type: in vivo
[3] = tested on: IPANs (intrinsic primary afferent neuron); test: Perfusion of isolated segment of bowel from the PD mouse model; conditions: perfusion through the lumen of isolated bowel segment from PD mouse model
[4] = intravenous administration, prior studies; cited from earlier work
[5] = systemic administration, mice; cited from earlier work

| Compound | dose well tolerated [1] | gastro-intestinal motility ([2]; orally administered, mice with constipation due to overexpression of human αS) | effect on gastrointestinal dysmotility ([2]; several mouse models of PD) | effect on IPANs and peristaltic contractions [3] | gastrointestinal motility [4] | clearance and excretion [5] |
| --- | --- | --- | --- | --- | --- | --- |
| CC(C)[C@@H](CC[C@@H](C)[C@H]1CC[C@H]2[C@@H]3[C@H](O)C[C@H]4C[C@@H](NCCCNCCCCN)CC[C@]4(C)[C@H]3CC[C@]12C)OS(=O)(=O)O.C[C@H](O)C(=O)O.C[C@H](O)C(=O)O [squalamine dilactate salt] | at least 300 mg/m^2 | – | – | – | – | – |
| CC(C)[C@@H](CC[C@@H](C)[C@H]1CC[C@H]2[C@@H]3[C@H](O)C[C@H]4C[C@@H](NCCCNCCCCN)CC[C@]4(C)[C@H]3CC[C@]12C)OS(=O)(=O)O [squalamine] | – | stimulates gastro-intestinal motility | reverse gastrointestinal dysmotility | excitation of IPANs | not associated with increased gastrointestinal motility | cleared by the liver and excreted as the intact molecule |
